The results in this text go back to US20240368214A1, “POSITIVE NMDA-MODULATING COMPOUNDS AND METHODS OF USE THEREOF” (SAGE THERAPEUTICS, INC., priority 2021, published 2024).

In the test the target is T1, recombinant human GluN1/GluN2A receptor (Homo sapiens, UniProt Q05586+Q12879).
T1 construct: expressed in transfected cells; host or cells: HEK293, tetracycline-inducible expression
Description: Whole-cell patch clamp of mammalian cells (Syncropatch 384i), NMDA modulation. It is filed as cell-based. Particulars: HEK293 cells, human GluN1/GluN2A, glutamate 1 μM / glycine 100 μM, -80 mV, peak amplitude increase; for EC50: read-out: EC50. A digest of the protocol:
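Modulation read as fold rise in peak current, (Icomp/Icontrol)−1, from 8 concentrations with ≥2 wells each, four-parameter fit. Compound pre-incubated 120 s then co-applied with 1 μM glutamate plus 100 μM glycine; tetracycline-inducible HEK293 GluN1/GluN2A cells clamped at −80 mV.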
Background: In patch-clamp work, channel activity is measured electrically.

Like-named read-outs stand apart in the source and are kept apart here.

T1 sequence (Q12879 23-1464, other chains not shown): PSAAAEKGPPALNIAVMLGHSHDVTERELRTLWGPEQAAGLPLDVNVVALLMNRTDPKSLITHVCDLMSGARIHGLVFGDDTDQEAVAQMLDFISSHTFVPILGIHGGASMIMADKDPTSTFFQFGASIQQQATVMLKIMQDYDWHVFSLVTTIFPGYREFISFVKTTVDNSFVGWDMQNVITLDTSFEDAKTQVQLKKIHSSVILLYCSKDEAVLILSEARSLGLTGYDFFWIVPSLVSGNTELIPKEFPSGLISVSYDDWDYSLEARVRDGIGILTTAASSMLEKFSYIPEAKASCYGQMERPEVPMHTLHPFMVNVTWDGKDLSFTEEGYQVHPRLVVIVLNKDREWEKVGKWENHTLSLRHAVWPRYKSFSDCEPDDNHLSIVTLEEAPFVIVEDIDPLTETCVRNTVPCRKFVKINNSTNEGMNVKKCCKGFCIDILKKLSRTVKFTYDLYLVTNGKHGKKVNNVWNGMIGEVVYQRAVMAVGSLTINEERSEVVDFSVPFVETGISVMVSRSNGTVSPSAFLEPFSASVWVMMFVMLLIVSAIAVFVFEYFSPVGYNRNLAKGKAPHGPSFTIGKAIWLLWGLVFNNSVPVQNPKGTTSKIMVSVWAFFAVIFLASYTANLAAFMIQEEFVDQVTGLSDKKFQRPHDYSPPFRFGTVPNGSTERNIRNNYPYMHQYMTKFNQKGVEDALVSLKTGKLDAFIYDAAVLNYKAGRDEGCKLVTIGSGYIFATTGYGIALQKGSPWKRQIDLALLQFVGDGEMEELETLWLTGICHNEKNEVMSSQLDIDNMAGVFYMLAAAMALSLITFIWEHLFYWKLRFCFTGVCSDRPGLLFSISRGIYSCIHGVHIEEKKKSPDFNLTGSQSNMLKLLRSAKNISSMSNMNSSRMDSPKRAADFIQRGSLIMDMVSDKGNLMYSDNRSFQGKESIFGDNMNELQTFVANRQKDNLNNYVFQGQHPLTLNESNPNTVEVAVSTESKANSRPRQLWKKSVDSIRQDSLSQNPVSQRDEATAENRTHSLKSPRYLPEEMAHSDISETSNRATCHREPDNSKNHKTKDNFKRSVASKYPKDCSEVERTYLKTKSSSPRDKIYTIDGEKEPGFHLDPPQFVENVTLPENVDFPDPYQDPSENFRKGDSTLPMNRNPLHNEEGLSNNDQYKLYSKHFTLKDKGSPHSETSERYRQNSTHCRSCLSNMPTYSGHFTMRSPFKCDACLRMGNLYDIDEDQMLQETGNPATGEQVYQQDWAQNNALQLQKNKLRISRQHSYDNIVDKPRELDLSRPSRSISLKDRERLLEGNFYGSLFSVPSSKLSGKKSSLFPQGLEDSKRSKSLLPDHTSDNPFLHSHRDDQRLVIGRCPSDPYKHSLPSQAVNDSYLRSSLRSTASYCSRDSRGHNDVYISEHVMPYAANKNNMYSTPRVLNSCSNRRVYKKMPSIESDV

In the case of `CC[C@]1(O)CC[C@]2(C)C3=CC[C@]4(C)[C@@H]([C@H](C)CC[C@@H](O)C(C)(C)C#N)CC[C@H]4[C@@H]3CC[C@H]2C1` [Compound C-28, (3R,6R)-6-((3S,5S,8S,10S,13R,14S,17R)-3-ethyl-3-hydroxy-10,13-dimethyl-2,3,4,5,6,7,8,10,12,13,14,15,16,17-tetradecahydro-1H-cyclopenta[a]phenanthren-17-yl)-3-hydroxy-2,2-dimethylheptanenitrile], the EC50 – broadly, the concentration that produces a half-maximal response – runs as follows: (Table C-2) 1 to 100 nM; (Table E-2) 1 to 100 nM.
With `CC[C@]1(O)CC[C@]2(C)C3=CC[C@]4(C)[C@@H]([C@H](C)CC[C@H](O)C(C)(C)C#N)CC[C@H]4[C@@H]3CC[C@H]2C1` [Compound C-29, (3S,6R)-6-((3S,5S,8S,10S,13R,14S,17R)-3-ethyl-3-hydroxy-10,13-dimethyl-2,3,4,5,6,7,8,10,12,13,14,15,16,17-tetradecahydro-1H-cyclopenta[a]phenanthren-17-yl)-3-hydroxy-2,2-dimethylheptanenitrile], the EC50 is, setting by setting: (Table C-2) 1 to 100 nM; (Table E-2) 1 to 100 nM.
As for `C[C@H](CC[C@H](O)C1(C#N)CCC1)[C@H]1CC[C@H]2[C@@H]3CC[C@H]4C[C@@](C)(O)CC[C@]4(C)C3=CC[C@]12C` [Compound C-30, 1-((1S,4R)-1-hydroxy-4-((3S,5S,8S,10S,13R,14S,17R)-3-hydroxy-3,10,13-trimethyl-2,3,4,5,6,7,8,10,12,13,14,15,16,17-tetradecahydro-1H-cyclopenta[a]phenanthren-17-yl)pentyl)cyclobutane-1-carbonitrile], the EC50 reads like this: (Table C-2) 100 to 500 nM; (Table E-2) 100 to 500 nM.
On to `C[C@H](CC[C@@H](O)C1(C#N)CCC1)[C@H]1CC[C@H]2[C@@H]3CC[C@H]4C[C@@](C)(O)CC[C@]4(C)C3=CC[C@]12C` [Compound C-31, 1-((1R,4R)-1-hydroxy-4-((3S,5S,8S,10S,13R,14S,17R)-3-hydroxy-3,10,13-trimethyl-2,3,4,5,6,7,8,10,12,13,14,15,16,17-tetradecahydro-1H-cyclopenta[a]phenanthren-17-yl)pentyl)cyclobutane-1-carbonitrile], for which the EC50 reads like this: (Table C-2) 1 to 100 nM; (Table E-2) 1 to 100 nM.
On to `C[C@H](CC[C@@H](O)C1(C#N)CC1)[C@H]1CC[C@H]2[C@@H]3CC[C@H]4C[C@@](C)(O)CC[C@]4(C)C3=CC[C@]12C` [Compound C-32, 1-((1R,4R)-1-hydroxy-4-((3S,5S,8S,10S,13R,14S,17R)-3-hydroxy-3,10,13-trimethyl-2,3,4,5,6,7,8,10,12,13,14,15,16,17-tetradecahydro-1H-cyclopenta[a]phenanthren-17-yl)pentyl)cyclopropane-1-carbonitrile], for which the EC50 runs as follows: (Table C-2) 1 to 100 nM; (Table E-2) 1 to 100 nM.
As to `C[C@H](CC[C@H](O)C1(C#N)CC1)[C@H]1CC[C@H]2[C@@H]3CC[C@H]4C[C@@](C)(O)CC[C@]4(C)C3=CC[C@]12C` [Compound C-33, 1-((1S,4R)-1-hydroxy-4-((3S,5S,8S,10S,13R,14S,17R)-3-hydroxy-3,10,13-trimethyl-2,3,4,5,6,7,8,10,12,13,14,15,16,17-tetradecahydro-1H-cyclopenta[a]phenanthren-17-yl)pentyl)cyclopropane-1-carbonitrile], the EC50 by setting is: (Table C-2) 100 to 500 nM; (Table E-2) 100 to 500 nM.
`C[C@H](CC[C@@H](O)C(C)(C)C#N)[C@H]1CC[C@H]2[C@@H]3CC[C@H]4C[C@@](C)(O)CC[C@]4(C)C3=CC[C@]12C` [Compound C-34, (3R,6R)-3-hydroxy-6-((3S,5S,8S,10S,13R,14S,17R)-3-hydroxy-3,10,13-trimethyl-2,3,4,5,6,7,8,10,12,13,14,15,16,17-tetradecahydro-1H-cyclopenta[a]phenanthren-17-yl)-2,2-dimethylheptanenitrile]: the EC50 fell in the range of 1 to 100 nM (Table C-2) and 1 to 100 nM (Table E-2).
For the compound `C[C@H](CC[C@H](O)C(C)(C)C#N)[C@H]1CC[C@H]2[C@@H]3CC[C@H]4C[C@@](C)(O)CC[C@]4(C)C3=CC[C@]12C` [Compound C-35, (3S,6R)-3-hydroxy-6-((3S,5S,8S,10S,13R,14S,17R)-3-hydroxy-3,10,13-trimethyl-2,3,4,5,6,7,8,10,12,13,14,15,16,17-tetradecahydro-1H-cyclopenta[a]phenanthren-17-yl)-2,2-dimethylheptanenitrile], the EC50 was 1 to 100 nM (Table C-2) and 1 to 100 nM (Table E-2).
For `CC[C@@]1(O)CC[C@@H]2CC[C@@H]3[C@H](CC[C@]4(C)[C@@H]([C@H](C)CC[C@@](C)(O)C(F)(F)F)CC[C@@H]34)[C@@]2(C)CC1` [Compound D-1, (1R,3aS,3bR,5aS,8R,10aS,10bS,12aR)-8-ethyl-10a,12a-dimethyl-1-((2R,5R)-6,6,6-trifluoro-5-hydroxy-5-methylhexan-2-yl)octadecahydrocyclohepta[a]cyclopenta[f]naphthalen-8-ol], under “Table D-2”, the Emax (usually the size of the effect at its maximum, as opposed to the concentration needed) is < 100% and the EC50 is > 1000 nM.
In the case of `CC[C@]1(O)CC[C@@H]2CC[C@@H]3[C@H](CC[C@]4(C)[C@@H]([C@H](C)CC[C@@](C)(O)C(F)(F)F)CC[C@@H]34)[C@@]2(C)CC1` [Compound D-2, (1R,3aS,3bR,5aS,8S,10aS,10bS,12aR)-8-ethyl-10a,12a-dimethyl-1-((2R,5R)-6,6,6-trifluoro-5-hydroxy-5-methylhexan-2-yl)octadecahydrocyclohepta[a]cyclopenta[f]naphthalen-8-ol], under “Table D-2”, the Emax is < 100% and the EC50 is > 1000 nM.
In the case of `CC[C@@]1(O)CC[C@@H]2CC[C@@H]3[C@H](CC[C@]4(C)[C@@H]([C@H](C)CC[C@](C)(O)C(F)(F)F)CC[C@@H]34)[C@@]2(C)CC1` [Compound D-3, (1R,3aS,3bR,5aS,8R,10aS,10bS,12aR)-8-ethyl-10a,12a-dimethyl-1-((2R,5S)-6,6,6-trifluoro-5-hydroxy-5-methylhexan-2-yl)octadecahydrocyclohepta[a]cyclopenta[f]naphthalen-8-ol], where the note is “Table D-2”, the maximum response (Emax) is 100 to 200% and the EC50 was in the range of 100 to 500 nM.
In the case of `CC[C@]1(O)CC[C@@H]2CC[C@@H]3[C@H](CC[C@]4(C)[C@@H]([C@H](C)CC[C@](C)(O)C(F)(F)F)CC[C@@H]34)[C@@]2(C)CC1` [Compound D-4, (1R,3aS,3bR,5aS,8S,10aS,10bS,12aR)-8-ethyl-10a,12a-dimethyl-1-((2R,5S)-6,6,6-trifluoro-5-hydroxy-5-methylhexan-2-yl)octadecahydrocyclohepta[a]cyclopenta[f]naphthalen-8-ol], where the note is “Table D-2”, the EC50 was > 1000 nM.
Turning to `CC[C@]1(O)CCC[C@@]2(C)[C@@H](CC[C@@H]3[C@@H]2CC[C@]2(C)[C@@H]([C@H](C)CC[C@@](C)(O)C(F)(F)F)CC[C@@H]32)C1` [Compound D-5, (1R,3aS,3bR,5aS,7S,10aS,10bS,12aR)-7-ethyl-10a,12a-dimethyl-1-((2R,5R)-6,6,6-trifluoro-5-hydroxy-5-methylhexan-2-yl)octadecahydrocyclohepta[a]cyclopenta[f]naphthalen-7-ol], where the note is “Table D-2”, the Emax is < 100% and the EC50 was 100 to 500 nM.
On to `CC[C@@]1(O)CCC[C@@]2(C)[C@@H](CC[C@@H]3[C@@H]2CC[C@]2(C)[C@@H]([C@H](C)CC[C@@](C)(O)C(F)(F)F)CC[C@@H]32)C1` [Compound D-6, (1R,3aS,3bR,5aS,7R,10aS,10bS,12aR)-7-ethyl-10a,12a-dimethyl-1-((2R,5R)-6,6,6-trifluoro-5-hydroxy-5-methylhexan-2-yl)octadecahydrocyclohepta[a]cyclopenta[f]naphthalen-7-ol], for which, where the note is “Table D-2”, the Emax was in the range of 100 to 200% and the EC50 lay within 1 to 100 nM.
For `CC[C@]1(O)CCC[C@@]2(C)[C@@H](CC[C@@H]3[C@@H]2CC[C@]2(C)[C@@H]([C@H](C)CC[C@](C)(O)C(F)(F)F)CC[C@@H]32)C1` [Compound D-7, (1R,3aS,3bR,5aS,7S,10aS,10bS,12aR)-7-ethyl-10a,12a-dimethyl-1-((2R,5S)-6,6,6-trifluoro-5-hydroxy-5-methylhexan-2-yl)octadecahydrocyclohepta[a]cyclopenta[f]naphthalen-7-ol], where the note is “Table D-2”, the Emax was in the range of 100 to 200% and the concentration giving a half-maximal response (EC50) fell in the range of 1 to 100 nM.
In the same order, the values of `CC[C@]1(O)CCC[C@@]2(C)C(=CC[C@H]3[C@@H]4CC[C@H]([C@H](C)CCC(C)(C)O)[C@@]4(C)CC[C@@H]32)C1` [Compound D-9, (1R,3aS,3bS,7S,10aR,10bS,12aR)-7-ethyl-1-((R)-5-hydroxy-5-methylhexan-2-yl)-10a,12a-dimethyl-1,2,3,3a,3b,4,6,7,8,9,10,10a,10b,11,12,12a-hexadecahydrocyclohepta[a]cyclopenta[f]naphthalen-7-ol] are 100 to 200% and 100 to 500 nM.
Consider `C[C@H](CC[C@](C)(O)C(F)(F)F)[C@H]1CC[C@H]2[C@@H]3CC=C4C[C@](C)(O)CCC[C@]4(C)[C@H]3CC[C@]12C` [Compound D-14, (1R,3aS,3bS,7R,10aR,10bS,12aR)-7,10a,12a-trimethyl-1-((2R,5S)-6,6,6-trifluoro-5-hydroxy-5-methylhexan-2-yl)-1,2,3,3a,3b,4,6,7,8,9,10,10a, 10b, 11,12,12a-hexadecahydrocyclohepta[a]cyclopenta[f]naphthalen-7-ol], for which the EC50 (Table D-2) was > 1000 nM.
